Data published in patent US8343951B2, “Volatile sulfide production inhibitor and method for inhibiting the production of volatile sulfide using the inhibitor” (Kabushiki Kaisha Hayashibara Seibutsu Kagaku Kenkyujo, priority 2006, dated 2013).

Columns and labels:
[1] = Hydrogen sulfide production from heated mackerel meat homogenate (headspace detecting tube); settings: for Produced Volatile sulfide: hydrogen sulfide in headspace; for Inhibiting rate of volatile sulfide production: hydrogen sulfide, relative to control
Protocol: AA-2G (reagent grade, commercialized by Hayashibara Biochemical Laboratories, Inc.) was dissolved in distilled water to give a solution of a concentration of 10%. A certain amount of the solution and 5 ml of 500 mM phosphate buffer (pH 7.0) were put into measuring flask and filled up to 50 ml to give the test solutions containing AA-2G at the twofold concentration described in Table 1. Also the test solutions containing ascorbic acid were prepared in the same way except for using ascorbic acid (guaranteed regent) in place of AA-2G. Five ml of 500 mM phosphate buffer (pH 7.0) was filled up to 50 ml with distilled water to give control solution. Edible part of commercial mackerel fillet without bone and skin was chopped with trio blender and homogeneously stirred to make minced mackerel. Forty-five grams of the minced mackerel was put into a beaker and added with 45 g of the test solution or control solution to give the samples at the concentration of AA-2G or ascorbic acid described in Table 1. The samples were treated with homogenizer (produced by IKA Works Inc.) at ice-chilled temperature to give the homogenates as the test samples. PH of the homogenates is from 6.21 to 6.38. Ten grams of the above samples were put into 20 ml-vials and sealed with butyl rubber cap and aluminum seal. They were heated in boiled water bath for 15 minutes and cooled in running cool water. After cooled, they were heated on heating block (80° C.) for 10 minutes and the solidified samples were broken with vortex mixer. The amounts of hydrogen sulfide in the headspace gas were measured by hydrogen sulfide detecting tube ([…] No. 4LT, produced by GL Sciences Inc.). Also the inhibiting rate (%) of hydrogen sulfide production were shown in Table 1, which were obtained by subtracting the percentage amounts of hydrogen sulfide produced from 1 g of mackerel meats added with test solutions relative to the amount of hydrogen sulfide produced from 1 g of mackerel meat added with control solution from 100 to obtain.

[2] = Dimethyl-sulfide and dimethyl-disulfide production from heated milk (headspace gas chromatography); settings: for Produced Dimethyl-disulfide / Produced Dimethyl-sulfide: milk heated 130° C. one minute; for production of volatile sulfides (dimethyl-sulfide and dimethyl-disulfide) from the test solutions / Produced Volatile sulfide: milk; for Inhibiting rate of volatile sulfide production: relative to control milk; for Produced Volatile sulfide: sum of dimethyl-sulfide and dimethyl-disulfide
Protocol: AA-2G (reagent grade, commercialized by Hayashibara Biochemical Laboratories, Inc.) was added in commercial milk to give the concentrations described in Table 2 to make the test solutions. Test solutions containing ascorbic acid were prepared in the same way except for using ascorbic acid (guaranteed regent) in place of AA-2G. The commercial milk was used plain as control. Sensory test of the solutions was performed by 11 panelists to evaluate the taste of each test solution added with AA-2G or ascorbic acid as being different (D) from control or as being the same (S) as control. As a result, eight or more of the 11 panelists gave a same evaluation to each test solution.
One ml of the above samples were put into 20 ml-vials and sealed with butyl rubber cap and aluminum seal. After heated at 130° C. for one minute, the amounts of dimethyl-sulfide and dimethyl-disulfide in the headspace were measured by gas chromatography in conventional way. The sums of them were shown as the amounts of volatile sulfide in Table 2. Also the inhibiting rates (%) of volatile sulfide production were shown in Table 2, which were obtained by subtracting the percentage amounts of volatile sulfide produced from ml of the test solutions relative to the amount of volatile sulfide produced from 1 ml of control (milk) from 100 to obtain.

SMILES: O=C1O[C@H]([C@@H](O)CO)C(O)=C1O[C@H]1O[C@H](CO)[C@@H](O)[C@H](O)[C@H]1O [AA-2G, α-D-glucopyronosyl-(1→2)-L-ascorbic acid]
- hydrogen sulfide production from homogenate of mackerel meat ([1]; AA-2G concentration of 0.1%): enhanced
- hydrogen sulfide production from homogenate of mackerel meat ([1]; concentration in a range from 0.0005 to 0.5%, versus control): inhibited
- Produced Volatile sulfide ([1]; additive 0.0001% in sample): 44.5 μg/g-mackerel
- Produced Volatile sulfide ([1]; additive 0.0005% in sample): 30.7 μg/g-mackerel
- Produced Volatile sulfide ([1]; additive 0.001% in sample): 17.4 μg/g-mackerel
- Produced Volatile sulfide ([1]; additive 0.005% in sample): 11.5 μg/g-mackerel
- Produced Volatile sulfide ([1]; additive 0.01% in sample): 13.2 μg/g-mackerel
- Produced Volatile sulfide ([1]; additive 0.025% in sample): 16.1 μg/g-mackerel
- Produced Volatile sulfide ([1]; additive 0.05% in sample): 19.9 μg/g-mackerel
- Produced Volatile sulfide ([1]; additive 0.1% in sample): 25.9 μg/g-mackerel
- Produced Volatile sulfide ([1]; additive 0.5% in sample): 38.2 μg/g-mackerel
- Produced Volatile sulfide ([1]; additive 1.0% in sample): 48.5 μg/g-mackerel
- Inhibiting rate of volatile sulfide production ([1]; additive 0.0001% in sample): −3.0%
- Inhibiting rate of volatile sulfide production ([1]; additive 0.0005% in sample): 28.9%
- Inhibiting rate of volatile sulfide production ([1]; additive 0.001% in sample): 59.7%
- Inhibiting rate of volatile sulfide production ([1]; additive 0.005% in sample): 73.4%
- Inhibiting rate of volatile sulfide production ([1]; additive 0.01% in sample): 69.4%
- Inhibiting rate of volatile sulfide production ([1]; additive 0.025% in sample): 62.7%
- Inhibiting rate of volatile sulfide production ([1]; additive 0.05% in sample): 53.9%
- Inhibiting rate of volatile sulfide production ([1]; additive 0.1% in sample): 40.0%
- Inhibiting rate of volatile sulfide production ([1]; additive 0.5% in sample): 11.6%
- Inhibiting rate of volatile sulfide production ([1]; additive 1.0% in sample): −12.3%
- Produced Dimethyl-disulfide ([2]; additive 0.0001% in sample): 0.54 μg/ml-milk
- Produced Dimethyl-sulfide ([2]; additive 0.0001% in sample): 1.30 μg/ml-milk
- Produced Dimethyl-disulfide ([2]; additive 0.0005% in sample): 0.43 μg/ml-milk
- Produced Dimethyl-sulfide ([2]; additive 0.0005% in sample): 1.12 μg/ml-milk
- Produced Dimethyl-disulfide ([2]; additive 0.001% in sample): 0.37 μg/ml-milk
- Produced Dimethyl-sulfide ([2]; additive 0.001% in sample): 0.75 μg/ml-milk
- Produced Dimethyl-disulfide ([2]; additive 0.005% in sample): 0.14 μg/ml-milk
- Produced Dimethyl-sulfide ([2]; additive 0.005% in sample): 0.23 μg/ml-milk
- Produced Dimethyl-disulfide ([2]; additive 0.01% in sample): 0.14 μg/ml-milk
- Produced Dimethyl-sulfide ([2]; additive 0.01% in sample): 0.11 μg/ml-milk
- Produced Dimethyl-disulfide ([2]; additive 0.05% in sample): 0.07 μg/ml-milk
- Produced Dimethyl-sulfide ([2]; additive 0.05% in sample): 0.07 μg/ml-milk
- Produced Dimethyl-disulfide ([2]; additive 0.1% in sample): 0.07 μg/ml-milk
- Produced Dimethyl-sulfide ([2]; additive 0.1% in sample): 0.06 μg/ml-milk
- Produced Dimethyl-disulfide ([2]; additive 0.5% in sample): 0.08 μg/ml-milk
- Produced Dimethyl-sulfide ([2]; additive 0.5% in sample): 0.10 μg/ml-milk
- Produced Dimethyl-disulfide ([2]; additive 2.5% in sample): 0.19 μg/ml-milk
- Produced Dimethyl-sulfide ([2]; additive 2.5% in sample): 0.28 μg/ml-milk
- production of volatile sulfides (dimethyl-sulfide and dimethyl-disulfide) from the test solutions ([2]; concentration from 0.005 to 0.5%): strongly inhibited
- production of volatile sulfides (dimethyl-sulfide and dimethyl-disulfide) from the test solutions ([2]; concentration of 0.0005% or more, compared to control): inhibited
- Inhibiting rate of volatile sulfide production ([2]; additive 0.0001% in sample): 2.6%
- Inhibiting rate of volatile sulfide production ([2]; additive 0.0005% in sample): 18.0%
- Inhibiting rate of volatile sulfide production ([2]; additive 0.001% in sample): 40.7%
- Inhibiting rate of volatile sulfide production ([2]; additive 0.005% in sample): 80.4%
- Inhibiting rate of volatile sulfide production ([2]; additive 0.01% in sample): 86.8%
- Inhibiting rate of volatile sulfide production ([2]; additive 0.05% in sample): 92.6%
- Inhibiting rate of volatile sulfide production ([2]; additive 0.1% in sample): 93.1%
- Inhibiting rate of volatile sulfide production ([2]; additive 0.5% in sample): 90.5%
- Inhibiting rate of volatile sulfide production ([2]; additive 2.5% in sample): 75.1%
- Produced Volatile sulfide ([2]; additive 0.0001% in sample): 1.94 µg/mL
- Produced Volatile sulfide ([2]; additive 0.0005% in sample): 1.55 µg/mL
- Produced Volatile sulfide ([2]; additive 0.001% in sample): 1.12 µg/mL
- Produced Volatile sulfide ([2]; additive 0.005% in sample): 0.37 µg/mL
- Produced Volatile sulfide ([2]; additive 0.01% in sample): 0.25 µg/mL
- Produced Volatile sulfide ([2]; additive 0.05% in sample): 0.14 µg/mL
- Produced Volatile sulfide ([2]; additive 0.1% in sample): 0.13 µg/mL
- Produced Volatile sulfide ([2]; additive 0.5% in sample): 0.18 µg/mL
- Produced Volatile sulfide ([2]; additive 2.5% in sample): 0.47 µg/mL
